Experimental data taken from patent publication US11987646B2, “Immunomodulatory peptides” (Leidos, Inc., priority 2020, dated 2024).

How the values were obtained:
[1] = tested on: MC38 (colon carcinoma) cells; experiment: MC38 tumor model; format: in vivo, mice; conditions: intra-tumorally 2× a week, 50 μg dose, normalized to day 0, Mann-Whitney test, P value 0.0499
Experimental: Mice were injected subcutaneously with 1×10^6 MC38 (colon carcinoma) cells and tumor volumes were measured on day 2, 5, 9, 12, and 16 (end of study) and normalized to day 0 values for each animal. When the mean tumor size reached approximately 80-120 mm^3, mice were randomized and treatment was started. Peptides were tested in an MC38 tumor model. FoLD01 peptide was administered intra-tumorally 2× a week (50 μg dose). Monoclonal antibodies were administered intraperitoneally 2× a week (5 mg/kg (anti-CTLA4) and 10 mg/kg (anti-PD1) dose). Statistical test used: Unpaired, non-parametric, two-tailed Mann-Whitney test. Control used: intra-tumor injection of DMSO diluted in PBS (for FoLD01 injected intra-tumorally).

[2] = target: T1, PD1 (Homo sapiens, UniProt Q15116); experiment: PATHHUNTER checkpoint signaling assay (PD1 activation / SHP1 recruitment); format: cell-based; conditions: Jurkat cells expressing PD1 and SHP1 co-incubated with PDL1-presenting U2OS cells, 2 h RT; peptides at 20 μM and 100 μM, in duplicate; FIG. 1
T1 construct: host or cells: Jurkat cells (PD1 and SHP1 EFC fusions), co-cultured with PDL1-presenting U2OS cells
T1 sequence (Q15116 25-288): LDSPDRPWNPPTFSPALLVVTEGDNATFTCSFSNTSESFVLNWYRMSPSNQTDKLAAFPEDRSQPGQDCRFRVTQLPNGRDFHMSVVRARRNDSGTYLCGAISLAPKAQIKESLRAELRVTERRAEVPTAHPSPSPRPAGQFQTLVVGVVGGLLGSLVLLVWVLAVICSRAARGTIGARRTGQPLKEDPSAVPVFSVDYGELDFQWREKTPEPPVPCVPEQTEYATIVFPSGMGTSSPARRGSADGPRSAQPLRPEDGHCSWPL
Experimental: Peptides were tested for their ability to inhibit the binding of PDL1 to PD1 using PATHHUNTER® checkpoint signaling assays (DiscoverX).
Jurkat cells expressing PD1 and SHP1 proteins, each fused to a fragment of enzyme fragment complementation (EFC) system, were co-incubated with PDL1-presenting U2OS cells. […] Inhibitory peptides or antibodies added to the culture would reduce the light signal.
Cells in co-culture were incubated at room temperature (RT) for 2 h (PD1 assay). The assay signal was generated using the PATHHUNTER® Bioassay Detection kit. FoLD01 (SEQ ID NO:1), LD10 (SEQ ID NO:5), and LD12 (SEQ ID NO:6) peptides were tested in duplicate at two concentrations, 20 μM and 100 μM. Peptides were dissolved in water or DMSO and diluted in assay buffer.
Microplates were read following signal generation using a PerkinElmer ENVISION™ instrument for chemiluminescent signal detection. The percentage of inhibition efficacy was calculated using the following formula, in which “RLU” means relative light units: […]

[3] = tested on: IFNγ-secreting antigen-specific CD8+ T cells; experiment: AdPyCS mouse model, IFNγ ELISPOT of spleen cells; format: in vivo; conditions: mice immunized i.m. with AdPyCSP, peptide subcutaneously 1 μg, 10 μg; spleens ten days post-injection; relative to AdPyCS-only; one-way ANOVA; FIG. 2
Experimental: Groups of five mice were immunized intramuscularly with a recombinant replication defective adenovirus expressing the Plasmodium yoelli circumsporozoite protein (AdPyCSP) and then treated subcutaneously with peptides LD10da ([…], in which the first amino acid is a D-amino acid, 1 μg), FoLD01 (1 μg, 10 μg), or an anti-PD1 monoclonal antibody (10 μg). Ten days post-injection, mice were euthanized and individual spleens removed. The number of IFNγ-secreting antigen-specific CD8+ T cells were determined using an ELISPOT assay (FIG. 2).

[4] = tested on: Pan02 (pancreatic adenocarcinoma) cells; experiment: Pan02 tumor model; format: in vivo, mice; conditions: intra-tumorally 2× a week, 50 μg dose, normalized to day 0, Mann-Whitney test
Experimental: Mice were injected subcutaneously with 3×10^6 Pan02 (pancreatic adenocarcinoma) cells in the right rear flank. Tumor volumes were measured at least twice weekly in two dimensions using a caliper. When the mean tumor size reached approximately 80-120 mm^3, mice were randomized and treatment was started. FoLD04 was administered intra-tumorally 2× a week (50 μg dose). Monoclonal antibodies were administered intraperitoneally 2× a week (5 mg/kg (anti-CTLA4) and 10 mg/kg (anti-PD1) dose).
Tumor volumes were measured on day 4, 7, 11, 14, 18, 21, 25 and 27 (end of study) and normalized to day 0 values for each animal. Statistical test used: Unpaired, non-parametric, two-tailed Mann-Whitney test.
Control used: intra-tumor injection of DMSO diluted in PBS (for FoLD04 injected intra-tumorally).

| Substance | tumor volume relative to intra-tumoral DMSO/PBS control [1] | inhibition of PD1-PDL1 interaction (percentage of inhibition efficacy) [2] | number of IFNγ-secreting antigen-specific CD8+ T cells [3] | tumor volume relative to DMSO/PBS IT control [4] |
| --- | --- | --- | --- | --- |
| FoLD01: peptide, amino acid sequence STNQVSALRVNILFPLSQ (SEQ ID NO:1) (FoLD01 peptide) | significantly decreased tumor volume | inhibited PD1-PDL1 interaction to a greater extent than peptides LD10 and LD12 | enhances the number of antigen-specific CD8+ T cells relative to stimulation with antigen only | – |
| FoLD04: peptide, amino acid sequence QVSALRVNILF (SEQ ID NO:4) (listed as Fusarium oxysporum) | – | – | – | significantly decreased tumor volume |
